≈ marks a conversion by molar mass, not a printed value. Where a name gives a salt, the structure may show the parent alone. Each block holds one compound with its values, some of them ahead of it.
How the values were obtained:
S. aureus 308A-1 [1] = assay: Antibacterial activity in mice, ED50 (Table 3); type: in vivo; conditions: Staphylococcus aureus, 308A1, sc, S.C.
Source text: The antibacterial activities against gram-positive bacteria (S. aureus […]-1) of some compounds of the invention are as shown in Table 3. | **mice, S.C.,

S. aureus 308A-1 [2] = assay: Antibacterial activity against gram-positive bacteria, MIC (Table 3); type: cell-based; conditions: Staphylococcus aureus, 308A1; Tripticase Soy Agar; inoculum size 10^8 cfu/ml
Source text: The antibacterial activities against gram-positive bacteria (S. aureus 308A-1) of some compounds of the invention are as shown in Table 3.
*Medium: Tripticase Soy Agar Inoculum size: 10^8 cfu/ml

[3] = tested on: Proteus morganii IFO 3168; assay: Antibacterial spectrum, minimal inhibitory concentration (Table D); type: cell-based; conditions: Morganella morganii, IFO3168; dihydrochloride; Bacto-Antibiotic Medium 3 agar; inoculum a loopful of approx. 10^6 CFU/ml
Procedure: (§1) Tables D and E show the antibacterial spectra of TAN-749A, B, C and D (dihydrochlorides) against various microorganisms.
(§2) Bacto-Antibiotic Medium 3
(§3) Distilled water 1,000 ml
(§4) Inoculum size a loopful of approx.

[4] = tested on: Staphylococcus aureus FDA 209P; assay: as above; type: cell-based; conditions: FDA209P, dihydrochloride, Bacto-Antibiotic Medium 3 agar, inoculum a loopful of approx. 10^6 CFU/ml
Procedure: as §1, §2, §3, §4

[5] = tested on: Escherichia coli NIHJ JC2; assay: as above; type: cell-based; conditions: NIHJJC2, dihydrochloride, Bacto-Antibiotic Medium 3 agar, inoculum a loopful of approx. 10^6 CFU/ml
Procedure: as §1, §2, §3, §4

[6] = tested on: Proteus vulgaris IFO 3988; assay: as above; type: cell-based; conditions: IFO3988, dihydrochloride, Bacto-Antibiotic Medium 3 agar, inoculum a loopful of approx. 10^6 CFU/ml
Procedure: as §1, §2, §3, §4

[7] = tested on: Acinetobacter calcoaceticus IFO 13006; assay: as above; type: cell-based; conditions: IFO13006, dihydrochloride, Bacto-Antibiotic Medium 3 agar, inoculum a loopful of approx. 10^6 CFU/ml
Procedure: as §1, §2, §3, §4

[8] = tested on: Alcaligenes faecalis IFO 13111; assay: as above; type: cell-based; conditions: IFO13111, dihydrochloride, Bacto-Antibiotic Medium 3 agar, inoculum a loopful of approx. 10^6 CFU/ml
Procedure: as §1, §2, §3, §4

[9] = tested on: Citrobacter freundii IFO 12681; assay: as above; type: cell-based; conditions: IFO12681, dihydrochloride, Bacto-Antibiotic Medium 3 agar, inoculum a loopful of approx. 10^6 CFU/ml
Procedure: as §1, §2, §3, §4

[10] = tested on: Klebsiella pneumoniae IFO 3317; assay: as above; type: cell-based; conditions: IFO3317, dihydrochloride, Bacto-Antibiotic Medium 3 agar, inoculum a loopful of approx. 10^6 CFU/ml
Procedure: as §1, §2, §3, §4

[11] = tested on: Pseudomonas aeruginosa IFO 3080; assay: as above; type: cell-based; conditions: IFO3080, dihydrochloride, Bacto-Antibiotic Medium 3 agar, inoculum a loopful of approx. 10^6 CFU/ml
Procedure: as §1, §2, §3, §4

[12] = tested on: Streptococcus pyogenes E-14; assay: Antibacterial spectrum, minimal inhibitory concentration, agar dilution (Table E); type: cell-based; conditions: E14, dihydrochloride, medium B--TSA (10% horse serum/TSA), inoculum a loopful of 10^8 CFU/ml
Source text: as §1
(§5) (Note 1) Determined by the agar dilution method. Inoculum size was a
(§6) loopful of 10^8 CFU/ml.
(§7) (Note 2) TSA (Tripticase Soy Agar; Baltimore Biological Laboratories,
(§8) USA), B--TSA; 10% horse serum/TSA

[13] = tested on: Pseudomonas aeruginosa P9; assay: as above; type: cell-based; conditions: dihydrochloride, medium B--TSA (10% horse serum/TSA), inoculum a loopful of 10^8 CFU/ml
Source text: as §1, §5, §6, §7, §8

Escherichia coli T7 [14] = assay: as above; type: cell-based; conditions: dihydrochloride, medium TSA, inoculum a loopful of 10^8 CFU/ml
Source text: as §1, §5, §6, §7, §8

[15] = tested on: Staphylococcus aureus 308A-1; assay: as above; type: cell-based; conditions: 308A1, dihydrochloride, medium TSA, inoculum a loopful of 10^8 CFU/ml
Source text: as §1, §5, §6, §7, §8

[16] = tested on: Staphylococcus aureus FDA209P; assay: as above; type: cell-based; conditions: dihydrochloride, medium B--TSA (10% horse serum/TSA), inoculum a loopful of 10^8 CFU/ml
Source text: as §1, §5, §6, §7, §8

[17] = tested on: Staphylococcus aureus 308A-1; assay: Therapeutic effect on infectious disease in mice (Table G); type: in vivo; conditions: bacteria infected intraperitoneally
Escherichia coli 0-111 = assay: as above; type: in vivo; conditions: Escherichia coli, 0111, sc, dihydrochloride, bacteria infected intraperitoneally, subcutaneous administration
[18] = tested on: Pseudomonas aeruginosa P-9; assay: as above; type: in vivo; conditions: P9, sc, dihydrochloride, bacteria infected intraperitoneally, subcutaneous administration
[19] = Preliminary acute toxicities in mice (Table H); conditions: mouse, in vivo, dihydrochloride
Escherichia coli T7 [20] = assay: Therapeutic effect on infectious disease in mice (Table G); type: in vivo; conditions: T7, sc, dihydrochloride, bacteria infected intraperitoneally, subcutaneous administration
Solubility = type: physicochemical
pKa' value = type: physicochemical; conditions: dihydrochloride
[21] = 308A1, sc, dihydrochloride, subcutaneous administration

MIC (S. aureus 308A-1 [2]): 100 µg/mL (≈ 295 µM)
Compound: CC=CC=C(C)C(=O)NCC(O)CC(N)CC(=O)NCCC(=N)N (stereo not shown) [44b]
ED50 (S. aureus 308A-1 [1]): 21.5 mg/kg

MIC (S. aureus 308A-1 [2]): > 100 µg/mL
Compound: C/C=C\C=C(/C)C(=O)NC[C@H](O)C[C@@H](N)CC(=O)NCCC(=N)N [101b]
ED50 (S. aureus 308A-1 [1]): 7.02 mg/kg

MIC (S. aureus 308A-1 [2]): > 100 µg/mL
Compound: C=C/C=C(\C)C(=O)NC[C@H](O)C[C@@H](N)CC(=O)NCCC(=N)N [112b]
ED50 (S. aureus 308A-1 [1]): 6.25 mg/kg

MIC (S. aureus 308A-1 [2]): > 100 µg/mL
Compound: N=C(N)CCNC(=O)C[C@H](N)C[C@@H](O)CNC(=O)/C=C/C=C\Cl [120b]
ED50 (S. aureus 308A-1 [1]): 8.61 mg/kg

MIC (S. aureus 308A-1 [2]): > 100 µg/mL
Compound: C/C=C\C=C\C(=O)NC[C@H](O)C[C@@H](N)CC(=O)NCC(C)C(=N)N (stereo partly shown) [124b]
ED50 (S. aureus 308A-1 [1]): 7.2 mg/kg

MIC (S. aureus 308A-1 [2]): > 100 µg/mL
Compound: C/C=C\C=C\C(=O)NC[C@H](O)C[C@@H](N)CC(=O)NCCC(=N)NC [125b]
ED50 (S. aureus 308A-1 [1]): 19.2 mg/kg

MIC (S. aureus 308A-1 [2]): > 100 µg/mL
Compound: C/C=C\C=C\C(=O)NC[C@H](O)C[C@H](CC(=O)NCCC(=N)N)NC(=O)CN [133b]
ED50 (S. aureus 308A-1 [1]): 8.41 mg/kg

MIC (S. aureus 308A-1 [2]): > 100 µg/mL
Compound: C/C=C\C=C\C(=O)NC[C@H](O)C[C@H](CC(=O)NCCC(=N)N)NC(=O)C(N)CO (stereo partly shown) [134b]
ED50 (S. aureus 308A-1 [1]): 7.79 mg/kg

MIC (S. aureus 308A-1 [2]): > 100 µg/mL
Compound: C/C=C\C=C\C(=O)NC[C@H](O)C[C@H](CC(=O)NCCC(=N)N)NC(=O)[C@H](C)N [136b]
ED50 (S. aureus 308A-1 [1]): 8.16 mg/kg

The next lines start with the compound.

Compound: C/C=C/C=C/C(=O)NCC(O)CC(N)CC(=O)NCCC(=N)N (stereo not shown) [III]
MIC [3]: > 100 µg/mL
MIC [4]: > 100 µg/mL
MIC [5]: > 100 µg/mL
MIC [6]: 100 µg/mL (≈ 307 µM)
MIC [7]: > 100 µg/mL
MIC [8]: 12.5 µg/mL (≈ 38.4 µM)
MIC [9]: > 100 µg/mL
MIC [10]: > 100 µg/mL
MIC [11]: 50 µg/mL (≈ 154 µM)
MIC [12]: 100 µg/mL (≈ 307 µM)
MIC [13]: 100 µg/mL (≈ 307 µM)
MIC (Escherichia coli T7 [14]): > 100 µg/mL
MIC [15]: > 100 µg/mL
MIC [16]: > 100 µg/mL
ED50 [17, 21]: 12.5 mg/kg
ED50 (Escherichia coli 0-111): 50 mg/kg

Compound: C/C=C\C=C\C(=O)NC(C)C(O)CC(N)CC(=O)NCCC(=N)N (stereo not shown) [II]
MIC [3]: 100 µg/mL (≈ 295 µM)
MIC [4]: 12.5 µg/mL (≈ 36.8 µM)
MIC [5]: > 100 µg/mL
MIC [6]: 25 µg/mL (≈ 73.7 µM)
MIC [7]: 50 µg/mL (≈ 147 µM)
MIC [8]: 6.25 µg/mL (≈ 18.4 µM)
MIC [9]: ≥ 100 µg/mL
MIC [10]: 100 µg/mL (≈ 295 µM)
MIC [11]: 50 µg/mL (≈ 147 µM)
MIC [12]: 6.25 µg/mL (≈ 18.4 µM)
MIC [13]: 50 µg/mL (≈ 147 µM)
MIC (Escherichia coli T7 [14]): 12.5 µg/mL (≈ 36.8 µM)
MIC [15]: 3.13 µg/mL (≈ 9.22 µM)
MIC [16]: 3.13 µg/mL (≈ 9.22 µM)
ED50 ([17]; 308A1, dihydrochloride, oral administration): 16.2 mg/kg
ED50 [17, 21]: 0.351 mg/kg
ED50 [18]: 61.4 mg/kg
ED50 (Escherichia coli 0-111): 27.3 mg/kg
LD50 ([19]; sc, subcutaneous): 400 to 800 mg/kg

Compound: C/C=C/C=C/C(=O)NC(C)C(O)CC(N)CC(=O)NCCC(=N)N (stereo not shown) [IV]
MIC [3]: > 100 µg/mL
MIC [4]: 50 µg/mL (≈ 147 µM)
MIC [5]: > 100 µg/mL
MIC [6]: 100 µg/mL (≈ 295 µM)
MIC [7]: > 100 µg/mL
MIC [8]: 6.25 µg/mL (≈ 18.4 µM)
MIC [9]: > 100 µg/mL
MIC [10]: > 100 µg/mL
MIC [11]: 100 µg/mL (≈ 295 µM)
MIC [12]: 25 µg/mL (≈ 73.7 µM)
MIC [13]: 100 µg/mL (≈ 295 µM)
MIC (Escherichia coli T7 [14]): 50 µg/mL (≈ 147 µM)
MIC [15]: 25 µg/mL (≈ 73.7 µM)
MIC [16]: 25 µg/mL (≈ 73.7 µM)
ED50 [17, 21]: < 6.25 mg/kg

Compound: C/C=C\C=C\C(=O)NCC(O)CC(N)CC(=O)NCCC(=N)N (stereo not shown) [I]
MIC [3]: > 100 µg/mL
MIC [4]: 50 µg/mL (≈ 154 µM)
MIC [5]: > 100 µg/mL
MIC [6]: 100 µg/mL (≈ 307 µM)
MIC [7]: 25 µg/mL (≈ 76.8 µM)
MIC [8]: 3.13 µg/mL (≈ 9.62 µM)
MIC [9]: ≥ 100 µg/mL
MIC [10]: > 100 µg/mL
MIC [12]: 3.13 µg/mL (≈ 9.62 µM)
MIC [13]: 100 µg/mL (≈ 307 µM)
MIC (Escherichia coli T7 [14]): 50 µg/mL (≈ 154 µM)
MIC [15]: 12.5 µg/mL (≈ 38.4 µM)
MIC [16]: 12.5 µg/mL (≈ 38.4 µM)
ED50 (Escherichia coli T7 [20]): 50.8 mg/kg
ED50 [17, 21]: 1.31 mg/kg
ED50 (Escherichia coli 0-111): 67.2 mg/kg
LD50 ([19]; oral): 2000 to 4000 mg/kg
LD50 ([19]; sc, subcutaneous): ~500 mg/kg

Compound: CN(CC(=O)O)NC(=O)C[C@H](N)C[C@@H](O)CN [Negamycin, 2-(3R,5R)-3,6-diamino-5-hydroxyhexanoyl-1-methylhydrazinoacetic acid, reference compound]
MIC (S. aureus 308A-1 [2]): > 100 µg/mL

Compound: C/C=C\C=C\C(=O)NCC(O)CC(N)CC(=O)NCCC(=N)N (stereo not shown) [TAN-749A dihydrochloride]
Solubility: Soluble (Solubility; dihydrochloride): Water, Dimethyl sulfoxide, Methanol
Solubility: Sparingly soluble (Solubility; dihydrochloride): Acetone, Ethyl acetate, Diethyl ether
pKa (pKa' value): 8

Compound: C/C=C\C=C\C(=O)NC(C)C(O)CC(N)CC(=O)NCCC(=N)N (stereo not shown) [TAN-749B dihydrochloride]
Solubility (by reference to TAN-749A dihydrochloride) (Solubility): Same with TAN-749A dihydrochloride
pKa (pKa' value): 8.05

Compound: C/C=C/C=C/C(=O)NCC(O)CC(N)CC(=O)NCCC(=N)N (stereo not shown) [TAN-749C dihydrochloride]
Solubility (by reference to TAN-749A dihydrochloride) (Solubility): Same with TAN-749A dihydrochloride

Compound: C/C=C/C=C/C(=O)NC(C)C(O)CC(N)CC(=O)NCCC(=N)N (stereo not shown) [TAN-749D dihydrochloride]
Solubility (by reference to TAN-749A dihydrochloride) (Solubility): Same with TAN-749A dihydrochloride

Compound: C/C=C\C=C\C(=O)NCC(O)CC(CC(=O)NCCC(=N)N)NC (stereo not shown) [compound 80]
MIC (S. aureus 308A-1 [2]): > 100 µg/mL

Compound: C/C=C\C=C\C(=O)NCC(O)CC(CC(=O)NCCC(=N)N)NCC (stereo not shown) [compound 82]
ED50 (S. aureus 308A-1 [1]): 25 mg/kg
MIC (S. aureus 308A-1 [2]): > 100 µg/mL
